{"source": "patent US11633370B2", "about": "“Use of scavengers of reactive gamma-ketoaldehydes to extend cell lifespan and healthspan” (Vanderbilt University, priority 2016, dated 2023)", "key": {"N2 WT C. elegans [1]": {"system": "N2 WT C. elegans", "assay": "Pharyngeal pumping rate, N2", "assay_type": "in vivo", "conditions": "increasing concentrations of SA, measured every fifth day; p<0.05", "excerpt": "To quantify this, the present inventors chose both a biochemical endpoint (lipofuscin autofluorescence) and a behavioral measure (pharyngeal pumping) that change predictably with aging and are associated with healthspan. The accumulation in the nematode intestinal epithelium of autofluorescent lipofuscin granules, a heterogeneous mixture of oxidized and crosslinked lipids and proteins and advanced glycation end products, is a known conserved phenomenon observed to increase with age. Visualization of lipofuscin granules is often used as an age-related assessment of healthspan. Lipofuscin autofluorescence were quantified over time (every 5 days) in N2 adult nematodes (10-20 per colony) in the presence of increasing doses of SA. […] For a behavioral/functional measurement of health, pharyngeal pumping rates were quantified. […] Pharyngeal pumping rates quantified in WT N2 worms established on OP50-seeded NGM agar plates with increasing concentrations of SA. The frequency of pharyngeal pumping was measured and recorded every fifth day as the animals aged.\nC. elegans pharyngeal pumping rate assays were performed on 60-mm agar plates with bacterial lawns at room temperature. […] The number of contractions in the terminal bulb of the pharynx was counted for 20 s and then plotted."}, "VC199 [sir-2.1(ok434)]": {"system": "VC199 [sir-2.1(ok434)]", "assay": "Longevity assay, non-functional SIR-2.1 mutant", "assay_type": "in vivo, C. elegans", "conditions": "0 μM SA 16 days, p=0.70", "protocol": "A nematode strain carrying a non-functional SIR-2.1 mutation, VC199 [sir-2.1(ok434)] was treated with the same concentrations of SA as were used in lifespan experiments with WT nematodes. Starting at day 1 of adulthood, SIR-2.1 mutants were grown on SA-coated OP50-seeded NGM plates. SIR-2.1 mutant worms were transferred to freshly made SA-OP50-NGM agar plates every 2 days and survival was assessed using a platinum wire until all worms died; survival was scored as movement upon slight touch with the platinum wire (FIG. 3B). When SA was administered to the VC199 strain, the effect of extending median lifespan that had been observed in the N2 strain was entirely abolished (FIG. 3C; VC199 median lifespan: 16 days, 0 μM SA; 15 days, 50 μM SA; 15 days, 100 μM SA; 15 days, 500 μM SA; p=0.70).\nC. elegans strains were cultured at 20° C. on standard nematode growth media (NGM) agar plates seeded with Escherichia coli strain NA22. The following strains were used in this work: wild-type C. elegans Bristol strain (N2), sir-2.1(ok434) IV, F19F10.5(ok888) V, and daf-16(mu86). Strains were obtained from the Caenorhabditis Genetics Center (University of Minnesota, St. Paul, Minn.). For generating cultures of 15-day-old (Day 15) adult worms, synchronized late-stage L4s/early young adult worms were transferred to peptone enriched 15 cm plates containing UV-irradiated OP50 E. coli and 0.12 mM 5-fluoro-2′-deoxyuridine (FUDR) to inhibit progeny production[88] with or without drug until harvest.\nNematodes grown on NGM-agar plates containing 0.5% peptone, were harvested, and eggs were isolated by alkaline hypochlorite with 0.5 N NaOH, 1% hypochlorite; 8 min at 23° C. […]\nSurvival cultures were grown on 60-mm agar plates; after the late-stage L4/young adult molt, approximately 100 adults were transferred onto SA-OP50-seeded NGM plates. […] Worms were maintained at 20° C. and live worms were counted during transfer to freshly made SA-OP50-NGM agar plates every 2-3 days. Survival was scored as movement upon slight touch with the platinum wire. […]"}, "N2 WT C. elegans [2]": {"system": "N2 WT C. elegans", "assay": "Oxygen consumption rate of whole worms, N2", "assay_type": "in vivo", "conditions": "whole worms over several days; p>0.05", "excerpt": "Mitochondria lie at the center of aging biology, playing crucial roles in energy production, carbon substrate metabolism, apoptosis regulation, and redox balance and signaling. Since sirtuins play a major role in regulating mitochondrial function, the present inventors next wanted to investigate whether SA was exerting any of its effects via protection of mitochondrial processes. To investigate SA's effects on mitochondrial respiration, the present inventors administered SA to WT N2 (FIG. 5A) and non-functional SIR-2.1 mutant worms (FIG. 5B) and measured oxygen consumption rate (OCR) in whole worms over several days. […] The present inventors also examined the effect of SA treatment on mitochondrial DNA (mtDNA) integrity.\nOxygen consumption rate for whole C. elegans was measured using a Seahorse Bioscience XF^e96 Analyzer. Worms were harvested from Day 0, 2, and 15 colonies maintained on FUDR containing SA-OP50-seeded NGM plates by washing in M9 medium, followed by floatation on an ice-cold 60% w/v sucrose gradient to segregate clean bacteria-free adult worms from bacterial debris. Worms were seeded at 1,000 worms/well in M9. After 20 min equilibration, a 2-min measurement was performed to obtain basal OCR for all experimental conditions and strains."}}, "data": [{"smiles": "NCc1ccccc1O", "note": "[SA, salicylamine]", "values": [{"measurement": "age-associated decline in pharyngeal pumping rate", "setting": "N2 WT C. elegans [1]", "value": "dose-dependent protection"}, {"measurement": "median lifespan", "setting": "VC199 [sir-2.1(ok434)]; 50 μM SA", "value": 15, "unit": "days"}, {"measurement": "median lifespan", "setting": "VC199 [sir-2.1(ok434)]; 100 μM SA", "value": 15, "unit": "days"}, {"measurement": "median lifespan", "setting": "VC199 [sir-2.1(ok434)]; 500 μM SA", "value": 15, "unit": "days"}, {"measurement": "mitochondrial oxygen consumption rate (OCR)", "setting": "N2 WT C. elegans [2]", "value": "no effect"}]}]}
